Measured values as given in US20110008302A1, “Compositions and methods for immortalizing cells and screening for anti-cancer agents” (priority 2007, published 2011).

Assays:
MEFs [1] = assay: Senescence of MEFs after Ndy1 siRNA (cell counting, β-galactosidase staining); assay type: cell-based, mouse
Protocol: (§1) MEFs overexpressing Ndy1 or Ndy2 and MEFs in which Ndy1 was knocked down with siRNA (1433-[…]-1454, SEQ ID NO: 1), were monitored for senescence by light microscopy and β-galactosidase staining and by cell counting at each passage. Transfection of siRNA was carried out using Lipofectamine 2000 (Invitrogen; Carlsbad, Calif.). Knockdown of Ndy1 was confirmed by Western blotting and real time RTPCR.
MEFs transfected with Ndy1 (1433-[…]-1454) or control siRNA (Dharmacon; Chicago, Ill.) were plated in triplicate at 10^5 cells per well in 6 well dishes, and three days later they were counted, re-transfected and replated at 10^5 cells per well. At day 6, cells were photographed, counted and stained for the β-galactosidase (Pierce #9860; Rockford, Ill.). β-galactosidase staining of the cells infected with the retroviral constructs and the siRNA-treated cells was performed using X-gal and a β-galactosidase staining kit (Pierce #9860).
To determine whether endogenous Ndy1 is a physiological regulator of senescence, passage 3 wild type MEFs and passage-8 MEFs overexpressing Ndy1 were transfected with Ndy1 or control siRNA. […] The transfected cells were passaged twice, and cell proliferation was monitored by counting the cells at each passage. Cell morphology and β-galactosidase staining were recorded after the second passage (FIG. 10 panel B, FIG. 10 panel C and FIG. 10 panel D). […]

Ndy1 = assay: siRNA knock down in MEFs (Western blot, real time PCR of p16Ink4a, p19Arf, Ezh2, miR-101); assay type: cell-based, mouse
Protocol: At a time point four days after transfection cells were analyzed by Western blotting and total mRNA was collected and analyzed by real-time PCR with primers specific for p16^Ink4a and p19^Arf and primers specific for the long and short forms of Ndy1. (n=3)*p<0.05
as §1
For siRNA. MEFs transfected with Ndy1 (1433-[…]-1454; SEQ ID NO: 51) or control siRNA (Dharmacon) were plated at 10^5 cells per 6 cm dish and 3-4 days later were harvested and analyzed (Pfau, R., et al. (2008) Proc Natl Acad Sci USA 105, 1907-12, incorporated herein by reference in its entirety). MEFs were transfected with the help of Lipofectamine 2000 (Invitrogen). To specifically knock down the short form of Ndy1 the following siRNA were used: 5′-[…]-′3 (SEQ ID NO: 52) which specifically targets the exon1 of the v2 isoform of Ndy1 (NM_013910). siRNAs for Ezh2 (a mix of two siRNAs form Applied Biosystems, #AM16708 siID #157427 and #157426) and Bmi-1 (Santa Cruz Biotechnologies, # sc-29815) were used in a final concentration of 80 nM.

MEFs [2] = assay: Stimulation of serum-starved MEFs with growth factors or serum (Ezh2, Ndy1, miR-101 levels); assay type: cell-based, mouse
Protocol: MEFs were transfected with control siRNA and stimulated with serum (10%) for 1, 4, 12 and 18 hours. (upper) Nuclear extracts were probed with antibody specific for Ezh2 and for CREB, levels of which served as loading control. (lower) Ndy1 and Ezh2 mRNA levels were measured with real time RT-PCR; GAPDH mRNA levels were used as internal control. Data are expressed as mean±SD.
Serum starved MEFs were stimulated with each of FGF-2 (20 ng/ml), IGF-1 (20 ng/ml), PDGF (20 ng/ml), serum (10%), VEGF (20 ng/ml), EGF (20 ng/ml) or TNFα (50 ng/ml). Nuclear extracts were probed with antibody specific for Ezh2 and for CREB, levels of which served as loading control.
Data are expressed as mean±SD.
MEFs transfected with control siRNA were stimulated with FGF-2 for 1, 4, 12 or 18 hours. (upper) Nuclear extracts were probed with antibody specific for Ezh2. CREB levels served as loading control. (middle) Ndy1 and Ezh2 mRNA were measured with real time RT-PCR; GAPDH mRNA levels were used as internal control. Data are expressed as mean±SD. (lower) miR-101 levels were measured with real time RT-PCR; U6 small nuclear RNA levels were used as internal control. Data are expressed as mean±SD.
For stimulation with FGF-2 (Cell signalling, catalog number 8910), IGF-1 (R&D Systems, catalog number 791-MG), PDGF (Cell signalling, catalog number 9909), VEGF (R&D systems, catalog number 493-MV), EGF (R&D systems, catalog number 236-EG), TNFα (Cell Signalling, catalog number 2169), cells were serum starved for 16 hours and growth factors were added at a final concentration of 20 ng/ml each, for 24 hours.
To identify a pathway regulating Ezh2 expression via the Ndy1/miR-101 axis, serum-starved MEFs were stimulated with FGF-2, IGF-1, PDGF, EGF, VEGF, TNFα or serum and were examined for expression of Ezh2, Ndy1 and miR-101 before and 24 hours after stimulation. […] This was confirmed with analyses in which FGF-2 was used to stimulate serum-starved MEFs transfected with a control siRNA or siRNA for Ndy1 (FIG. 36).

[3] = test system: TCCSUP, WIDR, SKOV3, T24, NCI522; assay: Ndy1 siRNA in cancer cell lines expressing high levels of FGF-2; assay type: cell-based, human; conditions: five of eight high FGF-2 cell lines, 48 hours after transfection
Protocol: RNAs were transfected with Lipofectamine 2000 (Invitrogen, catalog number 11668-027) in MEFs and DharmaFect 3 (Dharmacon, catalog number T-2003-03) in cancer cell lines, according to the manufacturers' instructions (80 nM final concentration).
These eight high FGF-2 expressing cell lines were then transfected with siRNA for Ndy1 or a control siRNA. Nuclear extracts of these cells, collected 48 hours after the transfection, were probed with antibodies specific for each of Ndy1, Ezh2 and CREB. RNA isolated from these cells was analyzed by real time RT-PCR for abundance of microRNA miR-101. […] The five cell lines were obtained from patients having each of transitional cell carcinoma, lung cancer, colon cancer, ovarian cancer, and bladder cancer.

MEFs [4] = assay: FGF-2-induced proliferation and migration of MEFs (MTT, transwell filter, wound healing); assay type: cell-based, mouse
Source text: FGF-2 stimulation induces both proliferation and migration in various cell types. To determine the role of Ndy1 in FGF-2-driven proliferation and migration, FGF-2 was used to stimulate serum-starved MEFs which were transfected with control RNA, siRNA for Ndy1, miR-101 or with siRNA for Ndy1+miR-101.
To determine cell number, the 3-[4,5-dimethylthiazol-2-yl]-2,5-[…] bromide (MTT, Invitrogen, catalog number M6494) assay was used as described in Polytarchou, C et al., 2005 J. Biol. Chem. 280: 40428-35. Cells were seeded at 2×10^4 cells/well in 24-well tissue culture plates. Twenty-four hours later, cells were serum-starved in medium without FBS for 16 h. Culture medium was replaced with fresh medium containing FGF-2 or control carrier, and the number of cells was determined. Results were confirmed by direct counting of cells under the microscope, using a standard hemocytometer.
Migration assays were performed using 24-well microchemotaxis chambers (Costar) with uncoated polycarbonate membranes (pore size 8 μm). Briefly, cells were harvested and resuspended at 5×10^4 cells/0.15 ml in DMEM containing 0.25% BSA. The bottom chamber of each transwell unit contained 0.6 ml of DMEM supplemented with 0.25% BSA and FGF-2 (20 ng/ml) or carrier as a control. The plates were incubated for 6 h at 37° C. and the filters were fixed with 4% paraformaldehyde in PBS and stained with 0.1% crystal violet solution. The cells that migrated through the filter were counted using a grid and an Optech microscope at 20× magnification.
To assay wound healing, cells were plated on 6-well plates, incubated in DMEM containing 10% FBS until confluence and were serum starved for 16 hours. Wounds were introduced to the confluent cell monolayer with a plastic pipette tip. Wells were washed three times to remove floating cells, and were cultured in DMEM without FBS, in the presence or absence of FGF-2 (20 ng/ml). Twelve and twenty four hours later, the wound area was photographed using a Nikon Phase Contrast-2 ELWD 0.3 Diaphot TMD inverted microscope with a 10× objective and a Spot charge-coupled-device camera (Diagnostic Instruments).

[5] = test system: Human Umbilical cord Vein Endothelial Cells; assay: In vitro tube formation assay; assay type: cell-based; conditions: HUVECs, FGF-2 20 ng/ml, 6 h
Protocol: HUVECs were transduced with a myc.Ezh2 expression construct, or with the empty vector (EV) and were subsequently transduced with either shRNA for Ndy1 or with a lentiviral-based control shRNA. (upper-first row) Tube formation on Cultrex-RGF-BME without FGF-2. (upper-second row) Tube formation on Cultrex-RGF-BME in the presence of 20 ng/ml FGF-2. (upper-third row) Tube formation on reduced-growth factor-Matrigel in the presence of 5 μM of the angiogenesis inhibitor sulphoraphane. (lower) Quantitation of tube formation was performed with the Angioquant software. Relative tube formation was calculated as the ratio of total capillary tube length in cells with or without FGF-2 normalized to total capillary tube length of EV cells without FGF-2 and set to 1 for total capillary tube length of EV cells without FGF-2. Data are expressed as mean±SD.
HUVECs were then transduced with a pBabe-based retrovirus construct of myc-Ezh2. Cells transduced with the empty pBabe vector (EV) were used as a negative control. […]
The in vitro tube formation assay was performed using the In Vitro Angiogenesis Assay Kit (Trevigen, catalog number 3470-096-K). […] After 6 h of incubation at 37° C., the medium was removed, the cells were fixed and stained with Calcein AM, and the total length of capillary tubes was measured in the total area of the wells using image analysis software (Angioquant). […]

[6] = MEFs cultured under standard conditions
[7] = MEFs transfected with control siRNA, FGF-2 for 1, 4, 12 or 18 hours
[8] = serum-starved MEFs, 24 hours after stimulation
[9] = serum-starved MEFs transfected with control RNA

“1433-GUGGACUCACCUUACCGAAUU-1454 [Ndy1 siRNA]” was tested, and the senescence (MEFs [1]) was “promote senescence”, the “expression of Ezh2” value (Ndy1; [6]) was “down-regulates, slightly” and the “expression of miR-101” value (Ndy1; [6]) was “does not affect”. For the same substance, the “p16Ink4a (Western blot)” value (Ndy1; passage 2 MEFs, transient knock down, 4 days) was “relatively slight upregulation”, the “increase of expression of p16Ink4a” value (Ndy1; passage 3 MEFs, four days after transfection) was “about 2.3 times” and the “expression of Ezh2” value (Ndy1; passage 3 MEFs, four days after transfection (FIG. 17 panel B)) was “decreases”. The “endogenous and exogenous Ndy1 (Western blotting)” value (Ndy1; passage 3 wild type MEFs and passage-8 MEFs overexpressing Ndy1) was “downregulation”, the “serum-stimulated Ezh2 upregulation” value (MEFs [2]; MEFs transfected with siRNA for Ndy1, serum stimulation) was “not affected” and the Ezh2 [3] was “downregulated”. The “expression of miR-101” value [3] was “upregulating”, the FGF-2 driven proliferation (MEFs [4]; MEFs overexpressing myc.Ezh2) was “no effect” and the “directional and random FGF-2 driven cell motility” value (MEFs [4]; MEFs overexpressing myc.Ezh2) was “remained unaffected”. The “FGF-2-induced Ezh2 upregulation” value (MEFs [4]; MEFs, 48 hour time point under FGF-2) was “sufficient to block” and the “FGF-2 effect on proliferation and migration” value (MEFs [4]; serum-starved MEFs stimulated with FGF-2) was “greatly limited”.
“FGF-2: Fibroblast growth factor-2 (FGF-2) or basic fibroblast growth factor” was tested, and the “total length of the capillary tubes formed” value [5] was “increase”, the Ezh2 (MEFs [2]; [7]) was “upregulates” and the Ndy1 (MEFs [2]; [7]) was “upregulates”. The miR-101 (MEFs [2]; [7]) was “down-regulates”, the “expression of Ndy1” value (MEFs [2]; [8]) was “promoted” and the “level at which Ezh2 expression is induced” value (MEFs [2]; [8]) was “primarily at the protein level”. The miR-101 (MEFs [2]; [8]) was “downregulating”, the Ezh2 expression (MEFs [2]; serum-starved MEFs, 24 hours after stimulation, 20 ng/ml (serum 10%)) was “significantly upregulated” and the “directional and random migration” value (MEFs [4]; [9]) was “increase”. The proliferation rate (MEFs [4]; [9]) was “increase”.
